Patent US6448204B1, “Herbicidal 2-aryloxy-4-methyl-6-pyrazol-1-yl-pyridines” (BASF Aktiengesellschaft, priority 1999, dated 2002)

Columns and labels:
Test in all cases: Pre-emergence test
Type in all cases: in vivo
Details in all cases: 3 weeks after treatment
[1] = test system: Abutilon theophrasti (ABUTH)
Method: (§1) To evaluate their herbicidal activity, compounds according to the invention are tested using a representative range of plants: […] The pre-emergence tests involve spraying a liquid formulation of the compound onto the soil in which the seeds of the plant species mentioned above has recently been sown. The soil used in the tests is a prepared horticultural loam. […] In these tests untreated sown soil are used as controls.

[2] = test system: Alopecurus myosuroides (ALOMY)
Method: as §1

[3] = test system: Ambrosia artemisifolia (AMBEL)
Method: as §1

[4] = test system: Cassia obtusifolia (CASOB)
Method: as §1

[5] = test system: Digitaria sanguinalis (DIGSA)
Method: as §1

[6] = test system: Echinochloa crus-galli (ECHCG)
Method: as §1

[7] = test system: Galium aparine (GALAP)
Method: as §1

[8] = test system: Ipomoea hederacea (IPOHE)
Method: as §1

[9] = test system: Lamium purpureum (LAMPU)
Method: as §1

[10] = test system: Lolium multiflorum (LOLMU)
Method: as §1

[11] = test system: Matricaria inodora (MATIN)
Method: as §1

[12] = test system: Setaria viridis (SETVI)
Method: as §1

[13] = test system: Stellaria media (STEME)
Method: as §1

Cc1cc(Oc2cc(C(F)(F)F)nn2C)nc(-n2ccc(C(F)(F)F)n2)c1 [Example 2, 4-methyl-2-(-3-trifluoromethyl-1H-prazol-1-yl)-6-(1-methyl-3-trifluoromethyl-pyrazol-5-yloxy)-pyridine]
9 (9 - Complete kill): Assessment rating ABUTH (pre-emergence application) ([1]; 0.400 kg/ha) | Assessment rating AMBEL (pre-emergence application) ([3]; 0.400 kg/ha) | Assessment rating CASOB (pre-emergence application) ([4]; 0.400 kg/ha) | Assessment rating DIGSA (pre-emergence application) ([5]; 0.013 kg/ha) | Assessment rating DIGSA (pre-emergence application) ([5]; 0.025 kg/ha) | Assessment rating DIGSA (pre-emergence application) ([5]; 0.100 kg/ha) | Assessment rating DIGSA (pre-emergence application) ([5]; 0.400 kg/ha) | Assessment rating IPOHE (pre-emergence application) ([8]; 0.400 kg/ha) | Assessment rating LAMPU (pre-emergence application) ([9]; 0.100 kg/ha) | Assessment rating LAMPU (pre-emergence application) ([9]; 0.400 kg/ha) | Assessment rating MATIN (pre-emergence application) ([11]; 0.100 kg/ha) | Assessment rating MATIN (pre-emergence application) ([11]; 0.400 kg/ha) | Assessment rating SETVI (pre-emergence application) ([12]; 0.013 kg/ha) | Assessment rating SETVI (pre-emergence application) ([12]; 0.025 kg/ha) | Assessment rating SETVI (pre-emergence application) ([12]; 0.100 kg/ha) | Assessment rating SETVI (pre-emergence application) ([12]; 0.400 kg/ha) | Assessment rating STEME (pre-emergence application) ([13]; 0.025 kg/ha) | Assessment rating STEME (pre-emergence application) ([13]; 0.100 kg/ha)
5 (5 - Definite injury): Assessment rating ALOMY (pre-emergence application) ([2]; 0.025 kg/ha)
0 (0 - No effect): Assessment rating CASOB (pre-emergence application) ([4]; 0.013 kg/ha)
4 (4 - Injury): Assessment rating AMBEL (pre-emergence application) ([3]; 0.013 kg/ha) | Assessment rating CASOB (pre-emergence application) ([4]; 0.025 kg/ha)
7 (7 - Good herbicidal effect): Assessment rating AMBEL (pre-emergence application) ([3]; 0.025 kg/ha) | Assessment rating MATIN (pre-emergence application) ([11]; 0.013 kg/ha)
6 (6 - Herbicidal effect): Assessment rating GALAP (pre-emergence application) ([7]; 0.100 kg/ha) | Assessment rating IPOHE (pre-emergence application) ([8]; 0.100 kg/ha) | Assessment rating LOLMU (pre-emergence application) ([10]; 0.013 kg/ha) | Assessment rating LOLMU (pre-emergence application) ([10]; 0.025 kg/ha) | Assessment rating STEME (pre-emergence application) ([13]; 0.013 kg/ha)
1 (1 - Trace effect): Assessment rating ABUTH (pre-emergence application) ([1]; 0.013 kg/ha) | Assessment rating ECHCG (pre-emergence application) ([6]; 0.013 kg/ha) | Assessment rating GALAP (pre-emergence application) ([7]; 0.013 kg/ha) | Assessment rating IPOHE (pre-emergence application) ([8]; 0.013 kg/ha)
8 (8 - Approaching complete kill): Assessment rating ABUTH (pre-emergence application) ([1]; 0.100 kg/ha) | Assessment rating ALOMY (pre-emergence application) ([2]; 0.100 kg/ha) | Assessment rating ALOMY (pre-emergence application) ([2]; 0.400 kg/ha) | Assessment rating AMBEL (pre-emergence application) ([3]; 0.100 kg/ha) | Assessment rating CASOB (pre-emergence application) ([4]; 0.100 kg/ha) | Assessment rating ECHCG (pre-emergence application) ([6]; 0.100 kg/ha) | Assessment rating ECHCG (pre-emergence application) ([6]; 0.400 kg/ha) | Assessment rating GALAP (pre-emergence application) ([7]; 0.400 kg/ha) | Assessment rating LAMPU (pre-emergence application) ([9]; 0.013 kg/ha) | Assessment rating LAMPU (pre-emergence application) ([9]; 0.025 kg/ha) | Assessment rating LOLMU (pre-emergence application) ([10]; 0.100 kg/ha) | Assessment rating LOLMU (pre-emergence application) ([10]; 0.400 kg/ha) | Assessment rating MATIN (pre-emergence application) ([11]; 0.025 kg/ha)
2 (2 - Slight effect): Assessment rating ALOMY (pre-emergence application) ([2]; 0.013 kg/ha) | Assessment rating ECHCG (pre-emergence application) ([6]; 0.025 kg/ha)
3 (3 - Moderate effect): Assessment rating ABUTH (pre-emergence application) ([1]; 0.025 kg/ha) | Assessment rating GALAP (pre-emergence application) ([7]; 0.025 kg/ha) | Assessment rating IPOHE (pre-emergence application) ([8]; 0.025 kg/ha)
